Our source for the melting point values is US9856254B2, “Alkoxy substituted imidazoquinolines” (3M INNOVATIVE PROPERTIES COMPANY, priority 2003, dated 2018).

Structures are written as SMILES. “And” between values parts separate entries of the source, which are not always exact repeats. Equal entries are not always repeated. Structures can show the parent of a compound that is named as a salt.

Broadly, the melting point is the temperature, or range, at which the solid turns liquid. `CCOCc1nc2c(N)nc3cc(OC4CCNCC4)ccc3c2n1CC(O)CO` (stereo not shown) (as salt: hydrochloride) returned a melting point of 278 to 280 °C.

Consider `CCCn1c(COCC)nc2c(N)nc3ccc(OCCNC(=O)N4CCOCC4)cc3c21` (as salt: hydrochloride) [Example 4, N-(2-{[4-Amino-2-(ethoxymethyl)-1-propyl-1H-imidazo[4,5-c]quinolin-8-yl]oxy}ethyl)morpholine-4-carboxamide], for which the melting point was in the range of 200 to 202 °C.

As to `CCCn1c(COCC)nc2c(N)nc3ccc(OCCNC(=O)C(C)C)cc3c21` (as salt: hydrochloride) [Example 5, N-(2-{[4-Amino-2-(ethoxymethyl)-1-propyl-1H-imidazo[4,5-c]quinolin-8-yl]oxy}ethyl)-2-methylpropanamide hydrochloride], the melting point is 240 to 242 °C.

With `CCOCc1nc2c(N)nc3cc(OCCN)ccc3c2n1CC(O)CO` (stereo not shown) (as salt: hydrochloride) [Example 373, 3-[4-Amino-7-(2-aminoethoxy)-2-(ethoxymethyl)-1H-imidazo[4,5-c]quinolin-1-yl]propane-1,2-diol dihydrochloride], the melting point was 221 to 223 °C.

Molecule `CCOCc1nc2c(N)nc3cc(OCCCN4CCCC4=O)ccc3c2n1CCCCN` (as salt: hydrochloride) [Example 398, 1-(3-{[4-Amino-1-(4-aminobutyl)-2-(ethoxymethyl)-1H-imidazo[4,5-c]quinolin-7-yl]oxy}propyl)pyrrolidin-2-one dihydrochloride] registered a melting point of over 250 °C.

Molecule `CCc1nc2c(N)nc3cc(OS(C)(=O)=O)ccc3c2n1CCOc1ccccc1` (as salt: methanesulfonate) [Example 367, 4-Amino-2-ethyl-1-(2-phenoxyethyl)-1H-imidazo[4,5-c]quinolin-7-yl methanesulfonate] gave a melting point of 213 to 214.5 °C.

With `CCCCc1nc2c(N)nc3ccc(OCCCCC(=O)N4CCOCC4)cc3c2n1C` (as salt: trifluoroacetate) [Example 31, 2-Butyl-1-methyl-8-[(5-morpholin-4-yl-5-oxopentyl)oxy]-1H-imidazo[4,5-c]quinolin-4-amine trifluoroacetate], the melting point lay in the range of 155.5 to 156.2 °C.

Molecule `CCCc1nc2c(N)nc3cc(OCC(=O)c4ccccc4)ccc3c2n1CC(C)C` [Example 1, 2-(4-Amino-1-(2-methylpropyl)-2-propyl-1H-imidazo[4,5-c]quinolin-7-yloxy)-1-phenylethanone] displayed a melting point of 178 to 180 °C.

With `CCCn1c(COCC)nc2c(N)nc3ccc(OCCN)cc3c21` [Example 2, 8-(2-Aminoethoxy)-2-ethoxymethyl-1-propyl-1H-imidazo[4,5-c]quinolin-4-amine], the melting point fell in the range of 157 to 159 °C.

With `CCCn1c(COCC)nc2c(N)nc3ccc(OCCNS(C)(=O)=O)cc3c21` [Example 3, N-[2-(4-Amino-2-ethoxymethyl-1-propyl-1H-imidazo[4,5-c]quinolin-8-yloxy)ethyl]methanesulfonamide], the melting point is 178 to 179.5 °C and 182 to 184.5 °C.

Take `CCCn1c(COCC)nc2c(N)nc3ccc(OCCNC(=O)N4CCOCC4)cc3c21` [Example 4, N-(2-{[4-Amino-2-(ethoxymethyl)-1-propyl-1H-imidazo[4,5-c]quinolin-8-yl]oxy}ethyl)morpholine-4-carboxamide]: the melting point lay within 203 to 208 °C.

Molecule `CCCn1c(COCC)nc2c(N)nc3ccc(OCCNC(=O)C4CCCO4)cc3c21` (stereo not shown) [Example 6, N-(2-{[4-Amino-2-(ethoxymethyl)-1-propyl-1H-imidazo[4,5-c]quinolin-8-yl]oxy}ethyl)tetrahydrofuran-2-carboxamide] gave a melting point of 202.5 to 204.5 °C.

In turn, `CCCc1nc2c(N)nc3cc(OCCCNC(=O)OC(C)(C)C)ccc3c2n1CC(C)C` [Example 7, tert-Butyl 3-{[4-amino-1-(2-methylpropyl)-2-propyl-1H-imidazo[4,5-c]quinolin-7-yl]oxy}propylcarbamate] registered a melting point of 162.5 to 164 °C.
